Earlier results, collected in patent US12533314B2, “Low sodium oxybate once nightly composition” (Tris Pharma, Inc., priority 2023, dated 2026).

Conditions: in vivo

SMILES: O=C(O)CCCO [Oxybate, Gamma-hydroxybutyrate]
- plasma half-life: 30 to 45 min
